Measured values: ChEMBL document CHEMBL4680246, “Design, synthesis and biological evaluation of novel O-carbamoyl ferulamide derivatives as multi-target-directed ligands for the treatment of Alzheimer's disease” (Eur J Med Chem, 2020)
Converted amounts (≈) assume the structure as drawn.

Columns and labels:
[1] = Effect on tau protein level in mouse HT22 cells transfected with pRK5-GFP-Tau plasmid assessed as fluorescence intensity at 10 uM by fluorescence microscopy (Rvb <= 40.9); format: functional, HT-22
[2] = Cytotoxicity against mouse HT22 cells assessed as cell viability at 80 uM by MTT assay relative to control; format: cell-based, HT-22; details: read-out: Activity
[3] = Cytotoxicity against mouse HT22 cells assessed as cell viability at 20 uM by MTT assay relative to control; format: cell-based, HT-22; details: read-out: Activity
[4] = system: SH-SY5Y; experiment: Neuroprotective activity against amyloid beta (1 to 42)-induced cytotoxicity in human SH-SY5Y cells assessed as cell viability at 10 uM by MTT assay (reference value: 50.3%); format: functional; details: read-out: Activity
[5] = molecular target: Amyloid-beta precursor protein (Homo sapiens) (UniProt P05067); experiment: Disaggregation of self-induced amyloid beta (1 to 42) (unknown origin) preformed fibrils at 25 uM measured after 24 hrs by thioflavin-T fluorescence assay relative to control
Sequence of Amyloid-beta precursor protein (Homo sapiens) (P05067 whole entry): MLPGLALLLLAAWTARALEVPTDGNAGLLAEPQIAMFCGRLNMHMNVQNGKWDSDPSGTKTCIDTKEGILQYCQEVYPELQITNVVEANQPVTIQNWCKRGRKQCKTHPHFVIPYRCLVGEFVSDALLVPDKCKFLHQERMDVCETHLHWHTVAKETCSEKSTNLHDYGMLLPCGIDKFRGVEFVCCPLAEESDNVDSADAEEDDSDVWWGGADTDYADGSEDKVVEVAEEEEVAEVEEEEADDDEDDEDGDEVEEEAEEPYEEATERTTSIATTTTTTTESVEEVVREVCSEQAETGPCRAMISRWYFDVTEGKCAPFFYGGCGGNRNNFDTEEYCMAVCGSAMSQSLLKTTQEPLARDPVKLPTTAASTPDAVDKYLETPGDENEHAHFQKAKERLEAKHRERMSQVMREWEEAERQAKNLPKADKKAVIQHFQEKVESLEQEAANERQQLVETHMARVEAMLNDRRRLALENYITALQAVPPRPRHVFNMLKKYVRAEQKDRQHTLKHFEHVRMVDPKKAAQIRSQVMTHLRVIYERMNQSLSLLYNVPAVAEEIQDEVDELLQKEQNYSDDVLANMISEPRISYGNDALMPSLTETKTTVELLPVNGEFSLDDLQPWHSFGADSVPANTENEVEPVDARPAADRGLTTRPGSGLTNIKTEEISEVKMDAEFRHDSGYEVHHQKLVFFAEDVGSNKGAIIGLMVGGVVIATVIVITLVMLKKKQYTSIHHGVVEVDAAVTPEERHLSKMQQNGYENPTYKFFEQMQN

[6] = molecular target: Cholinesterase (Homo sapiens, UniProt P06276); experiment: Inhibition of human serum BuChE assessed as residual activity at IC50 using acetylcholine iodide as substrate measured after dilution by Ellman's method relative to control
Sequence of Cholinesterase (P06276 whole entry): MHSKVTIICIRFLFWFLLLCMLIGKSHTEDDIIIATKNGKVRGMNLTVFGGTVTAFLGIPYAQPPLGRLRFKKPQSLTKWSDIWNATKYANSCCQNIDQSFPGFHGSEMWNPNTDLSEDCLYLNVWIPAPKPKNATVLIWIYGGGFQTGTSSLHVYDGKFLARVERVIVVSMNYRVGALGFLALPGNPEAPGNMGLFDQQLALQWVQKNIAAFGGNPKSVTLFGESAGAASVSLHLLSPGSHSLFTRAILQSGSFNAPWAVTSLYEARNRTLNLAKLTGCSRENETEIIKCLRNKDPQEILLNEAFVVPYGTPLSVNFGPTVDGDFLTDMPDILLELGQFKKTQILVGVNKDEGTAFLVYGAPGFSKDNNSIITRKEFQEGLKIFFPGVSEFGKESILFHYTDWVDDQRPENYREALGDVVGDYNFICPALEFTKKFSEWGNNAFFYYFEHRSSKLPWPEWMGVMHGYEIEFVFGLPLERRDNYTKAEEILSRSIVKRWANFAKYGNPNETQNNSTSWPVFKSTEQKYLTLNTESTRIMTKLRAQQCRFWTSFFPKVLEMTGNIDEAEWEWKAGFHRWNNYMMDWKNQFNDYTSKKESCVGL

[7] = molecular target: Acetylcholinesterase (Electrophorus electricus, UniProt O42275); experiment: Inhibition of Electrophorus electricus AChE using acetylcholine iodide as substrate incubated for 15 mins by Ellman's method
Sequence of Acetylcholinesterase (O42275 whole entry): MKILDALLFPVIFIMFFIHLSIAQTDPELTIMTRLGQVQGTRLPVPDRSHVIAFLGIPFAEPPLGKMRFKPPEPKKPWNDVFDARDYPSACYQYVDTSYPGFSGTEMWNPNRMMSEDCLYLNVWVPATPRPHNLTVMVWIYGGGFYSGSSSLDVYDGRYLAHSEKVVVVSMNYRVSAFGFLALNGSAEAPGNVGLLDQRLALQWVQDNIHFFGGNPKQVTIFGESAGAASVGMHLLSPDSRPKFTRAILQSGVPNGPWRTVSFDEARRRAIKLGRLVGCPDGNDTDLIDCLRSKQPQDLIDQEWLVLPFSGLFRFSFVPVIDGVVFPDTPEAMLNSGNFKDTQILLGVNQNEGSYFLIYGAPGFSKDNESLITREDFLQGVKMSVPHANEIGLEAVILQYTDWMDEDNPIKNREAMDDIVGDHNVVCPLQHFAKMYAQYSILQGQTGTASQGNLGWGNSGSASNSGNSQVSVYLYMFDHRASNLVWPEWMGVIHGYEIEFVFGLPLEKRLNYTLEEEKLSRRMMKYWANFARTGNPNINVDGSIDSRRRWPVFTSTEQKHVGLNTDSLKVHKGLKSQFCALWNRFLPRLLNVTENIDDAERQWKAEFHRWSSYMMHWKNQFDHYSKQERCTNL

[8] = Acute toxicity in Kunming mouse assessed as damage in lung at 50 to 1000 mg/kg measured after 7 days; format: organism-based; details: in vivo, 168 h, dose 50-1000 mg/kg, time 7 day
[9] = Acute toxicity in Kunming mouse assessed as damage in spleen at 50 to 1000 mg/kg measured after 7 days; format: organism-based; details: in vivo, 168 h, dose 50-1000 mg/kg, time 7 day
[10] = Effect on tau protein level in mouse HT22 cells transfected with pRK5-GFP-Tau P301L plasmid assessed as fluorescence intensity at 2.5 uM by fluorescence microscopy (reference value: 33.6); format: functional, HT-22
[11] = Effect on tau protein level in mouse HT22 cells transfected with pRK5-GFP-Tau P301L plasmid assessed as fluorescence intensity at 5 uM by fluorescence microscopy (reference value: 33.6); format: functional, HT-22
[12] = system: HT-22; experiment: Effect on tau protein level in mouse HT22 cells transfected with pRK5-GFP-Tau P301L plasmid assessed as reduction in fluorescence intensity by fluorescence microscopy; format: functional, cell-based
[13] = Effect on APP protein level in mouse HT22 cells transfected with pEGFP-N1-APP plasmid assessed as fluorescence intensity at 2.5 uM by fluorescence microscopy (reference value: 33.2); format: functional, HT-22
[14] = system: L02; experiment: Cytotoxicity against human LO2 cells assessed as reduction in cell viability at 25 uM by MTT assay; format: cell-based; details: l02, 25 µM
[15] = Toxicity in Zebrafish; parameters: species or system Danio rerio; details: in vivo
[16] = Toxicity in Zebrafish assessed as induction of yolk sac absorption delay at 1.04 ug/ml relative to control; parameters: species or system Danio rerio; details: in vivo, at 1.04 µg/mL
[17] = Toxicity in Zebrafish assessed as induction of yolk sac absorption delay at 3.125 ug/ml relative to control; parameters: species or system Danio rerio; details: in vivo, at 3.125 µg/mL
[18] = Toxicity in Zebrafish assessed as pericardial edema at 6.25 ug/ml relative to control; parameters: species or system Danio rerio; details: in vivo, at 6.25 µg/mL
[19] = Toxicity in Zebrafish assessed as small or misshapen brain at 6.25 ug/ml relative to control; format: tissue-based, Danio rerio; details: in vivo, at 6.25 µg/mL
[20] = Toxicity in Zebrafish assessed as induction of kidney edema at 6.25 ug/ml relative to control; parameters: species or system Danio rerio; details: in vivo, at 6.25 µg/mL
[21] = Toxicity in Zebrafish assessed as change in body shape at 6.25 ug/ml relative to control; parameters: species or system Danio rerio; details: in vivo, at 6.25 µg/mL
[22] = Toxicity in AlCl3-induced Zebrafish model of Alzheimer's disease assessed as mortality at 25 ug/ml relative to control; parameters: species or system Danio rerio; details: in vivo, at 25 µg/mL
[23] = organism: Danio rerio; experiment: Antialzheimer activity in AlCl3-induced Zebrafish model of Alzheimer's disease assessed as motility distance at 0.33 ug/ml (reference value: 5346 mm); format: functional; details: dose 0.33 µg/ml
[24] = organism: Danio rerio; experiment: Antialzheimer activity in AlCl3-induced Zebrafish model of Alzheimer's disease assessed as motility distance at 1 ug/ml (reference value: 5346 mm); format: functional; details: dose 1 µg/ml
[25] = organism: Danio rerio; experiment: Antialzheimer activity in AlCl3-induced Zebrafish model of Alzheimer's disease assessed as increase in motility distance at 1 ug/ml relative to control; format: functional; details: dose 1 µg/ml
[26] = organism: Danio rerio; experiment: Antialzheimer activity in AlCl3-induced Zebrafish model of Alzheimer's disease assessed as change in motility speed at […] (reference value: 1.08 mm/s); format: functional; details: dose 0.11 µg/ml
[27] = organism: Danio rerio; experiment: Antialzheimer activity in AlCl3-induced Zebrafish model of Alzheimer's disease assessed as change in motility speed at 1 ug/ml (reference value: 1.08 mm/s); format: functional; details: dose 1 µg/ml
[28] = organism: Danio rerio; experiment: Protection against amyloid beta (1 to 42)-induced zebrafish model of vascular injury assessed as vascular injury rate at 0.33 ug/ml (reference value: 73.3%); format: functional; details: dose 0.33 µg/ml
[29] = organism: Danio rerio; experiment: Protection against amyloid beta (1 to 42)-induced zebrafish model of vascular injury assessed as reduction in vascular injury at 0.33 ug/ml relative to control; format: functional; details: dose 0.33 µg/ml
[30] = Acute toxicity in Kunming mouse assessed as mortality at 50 to 1000 mg/kg; format: organism-based; details: in vivo, dose 50-1000 mg/kg
[31] = Acute toxicity in Kunming mouse assessed as decrease in autonomic activity at 250 to 1000 mg/kg; format: organism-based; details: in vivo, dose 250-1000 mg/kg
[32] = Acute toxicity in Kunming mouse assessed as hypokinesia at 250 to 1000 mg/kg; format: organism-based; details: in vivo, dose 250-1000 mg/kg
[33] = Acute toxicity in Kunming mouse assessed as piloerection at 250 to 1000 mg/kg measured after 4 hrs; format: organism-based; details: in vivo, dose 250-1000 mg/kg
[34] = system: Mus musculus; experiment: Improvement in brain cholinergic activity in scopolamine-induced mouse model of amnesia assessed as change in AChE vitality at 6 mg/kg (reference value: 0.105 U/mg); format: functional
[35] = organism: Mus musculus; experiment: Improvement in brain cholinergic activity in scopolamine-induced mouse model of amnesia assessed as increase in ChAT vitality; format: functional, organism-based
[36] = system: Mus musculus; experiment: Improvement in brain cholinergic activity in scopolamine-induced mouse model of amnesia assessed as change in ChAT vitality at 20 mg/kg (reference value: 28.8 U/g); format: functional
[37] = Drug metabolism in rat intestinal flora by HPLC analysis; format: ADME, tissue-based, Intestine

With CCN(C)C(=O)Oc1ccc(/C=C/C(=O)N2CCc3ccccc3C2)cc1OC the Flu intensity [1] was 33.3, the viability at 80 µM [2] was 8.4% and the viability at 20 µM [3] was 79.8%. It also gave a viability at 10 µM [4] of 83.8%, an Activity [5] of 43.3% and an Activity [6] of 48.2%. The IC50 [7] was 11.3 µM, the Activity [8] was “Non-Toxic” and the Activity [9] was “Non-Toxic”. The Flu intensity [10] was 30.3, the Flu intensity [11] was 23.9 and the Activity [12] was “Dose-dependent effect”. For the same compound, the Flu intensity [13] was 29.8, the Activity [14] was “Non-Toxic” and the LC10 [15] was 6.25 µg/mL (≈ 15.8 µM). The MNTC ([15]; read-out: MNCC) was 3.12 µg/mL, the Activity [16] was 13.3% and the Activity [17] was 40%. It also gave an Activity [18] of 46.7%, an Activity [19] of 26.7% and an Activity [20] of 33.3%. It also gave an Activity [21] of 53.3%, a mortality at 25 ug/ml [22] of 100% and an Activity [23] of 6763 mm. The Activity [24] was 7024 mm, the Efficacy [25] was 85.9% and the Activity [26] was 1.79 millimeter/sec. The Activity [27] was 2.15 millimeter/sec, the Activity [28] was 66.7% and the Efficacy [29] was 9%. The Activity [30] was “Non-Toxic”, the Activity [31] was “Toxic” and the Activity [32] was “Toxic”. For the same compound, the Activity [33] was “Non-Toxic”, the Activity [34] was 0.098 U/mg and the Activity [35] was “Dose-dependent effect”. For the same compound, the Activity [36] was 54.1 U/g and the Drug metabolism [37] was “Metabolite_Detected”.
